Measured values as given in US8507472B2 (priority 2010, dated 2013).
Read-outs that look alike come from different tables or passages of the source.

Assays:
Alternaria solani = assay: Alternaria test (tomato)/protective; assay type: in vivo
How it was run: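 Treatment was protective: spray application at the stated rate came one day before spore inoculation. Incubation was 24 h at 22 °C and 100% humidity, then 20 °C and 96% humidity. Infection was rated at day 7 as % efficacy against the control, with 100% meaning no disease.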

Botrytis cinerea = assay: Botrytis test (bean)/protective; assay type: in vivo; details: 100 ppm active compound, protective, evaluation 2 days after inoculation
How it was run: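 Protective spray test: leaves inoculated with two B. cinerea-colonized agar plugs after the spray dried, then incubated in darkness, ~20° C., 100% relative humidity. Formulation was acetone/dimethylacetamide with emulsifier, water-diluted. Lesion size rated 2 days post-inoculation as efficacy (0% matching control, 100% infection-free).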

Fusarium graminearum [1] = assay type: in vivo
[2] = system: Fusarium nivale (var. majus); assay: Fusarium nivale (var. majus) test (wheat)/protective; assay type: in vivo; details: 1000 ppm active compound, protective, evaluation 5 days after inoculation
How it was run: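 Protective spray of young wheat plants at the stated rate (compound in dimethylacetamide with emulsifier, diluted in water), then inoculation with Fusarium nivale spores once dry. Plants kept at 10 °C and 100% humidity; scored 5 days after inoculation as % efficacy, where 0% equals untreated control and 100% means no infection.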

Leptosphaeria nodorum = Leptosphaeria nodorum test (wheat)/protective; assay type: in vivo
How it was run: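 Young wheat plants were sprayed protectively, then inoculated 1 day later with L. nodorum spores and held 48 h at 100% humidity and 22° C. They were then kept in a greenhouse at 90% humidity and 22° C. Efficacy was scored 7-9 days post-inoculation, where 0% equals control and 100% means no infection.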

Phytophthora infestans = assay type: in vivo
Puccinia triticina = Puccinia triticina test (wheat)/protective; assay type: in vivo
How it was run: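 Protective test: young wheat plants sprayed with compound (dimethylacetamide/alkylaryl polyglycol ether formulation, water-diluted) at stated rate, then inoculated with Puccinia triticina spores once dry; 48 h at 20 °C, 100% RH, then greenhouse ~20 °C, ~80% RH. Efficacy scored 8 days post-inoculation, 0% = control, 100% = no infection.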

Pyrenophora teres = Pyrenophora teres test (barley)/protective; assay type: in vivo
How it was run: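 Efficacy, read 7-9 days after spore inoculation, runs from 0% (equal to untreated control) to 100% (no infection). Barley sprayed with water-diluted DMF/emulsifier formulation was inoculated one day later, incubated 48 h at 22° C. and 100% rel. humidity, then held at 20° C. and 80% humidity.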

Septoria tritici = Septoria tritici test (wheat)/protective; assay type: in vivo; details: in vivo
How it was run: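 Young wheat plants were sprayed protectively with compound (dimethylacetamide/emulsifier formulation diluted in water), then inoculated with Septoria tritici spores after drying. Incubation was 48 hours at 20° C and 100% humidity, then 60 hours at 15° C and 100% humidity, then greenhouse at about 15° C, 80% humidity; efficacy was scored 21 days post-inoculation (0% = control, 100% = no infection).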

Sphaerotheca fuliginea = assay: Sphaerotheca test (cucumber)/protective; assay type: in vivo
How it was run: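 Infection was rated 7 days after spore inoculation as % efficacy (0% = control level, 100% = no disease). Inoculation followed 1 day after preventive spray of young cucumbers with compound formulated in N,N-dimethylformamide plus emulsifier and diluted with water; plants were held at 23 °C and 70% relative humidity.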

Uromyces appendiculatus = assay: Uromyces test (bean)/protective; assay type: in vivo
How it was run: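 Young bean plants sprayed with compound formulated in acetone/dimethylacetamide with emulsifier, inoculated with Uromyces appendiculatus spores after drying, held 1 day at ~20 °C and 100% humidity, then greenhouse ~21 °C, ~90% humidity. Efficacy scored 10 days post-inoculation, 0% = untreated control, 100% = no infection.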

Venturia inaequalis = assay: Venturia test (apple)/protective; assay type: in vivo; details: 100 ppm active compound, protective, evaluation 10 days after inoculation
How it was run: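 Efficacy read 10 days after inoculation, where 100% is no infection and 0% matches untreated control. Plants kept 1 day at ~20° C and 100% relative humidity after conidia inoculation, then ~21° C and ~90% humidity; inoculation followed drying of a protective spray of compound formulated in acetone/dimethylacetamide plus emulsifier and diluted with water.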

Pyricularia oryzae = details: in vivo
Rhizoctonia solani = assay: Rhizoctonia test (rice)/protective; assay type: in vivo; details: 250 ppm active compound, protective, evaluation 4 days after inoculation
Description: (§1) Solvent: 28.5 parts by weight of acetone
(§2) Emulsifier: 1.5 parts by weight of alkylaryl polyglycol ether
(§3) To produce a suitable preparation of active compound, 1 part by weight of active compound is mixed with the stated amount of solvent, and the concentrate is diluted with water and the stated amount of emulsifier to the desired concentration.
To test for protective activity, young rice plants are sprayed with the active compound preparation at the stated application rate. 1 day after the treatment, the plants are inoculated with hyphae of Rhizoctonia solani. The plants are then placed in a greenhouse at 100% relative atmospheric humidity and 25° C.
Evaluation is carried out 4 days after the inoculation. 0% means an efficacy which corresponds to that of the control, whereas an efficacy of 100% means that no infection is observed.

Cochliobolus miyabeanus = assay: Cochliobolus test (rice)/protective; assay type: in vivo; details: 250 ppm active compound, protective, evaluation 4 days after inoculation
Gibberella zeae = details: in vivo
DON/AcDON production = assay: microbe, parasite or virus in culture; assay type: cell-based, Fusarium graminearum; details: 7 days at 28° C.
Fusarium graminearum [3] = assay: microbe, parasite or virus in culture; assay type: cell-based
Phakopsora pachyrhizi = assay: Phakopsora test (Sojabohnen)/protective; assay type: in vivo; details: 250 ppm active compound, protective, evaluation 1 day after inoculation
Description: as §1, §2, §3
[…] 1 day after the treatment, the plants are inoculated with an aqueous spore suspension of Phakopsora pachyrhizi. The plants are then placed in a greenhouse at 80% relative atmospheric humidity and 20° C.
Evaluation is carried out 1 day after the inoculation. 0% means an efficacy which corresponds to that of the control, whereas an efficacy of 100% means that no infection is observed.

[4] = log P determination by HPLC retention times (alkan-2-one calibration)
[5] = 500 ppm active compound, tomato, protective, evaluation 7 days after inoculation

CC(C)C(=O)Nc1cc(-c2c(-c3ccccc3)nn3c2CCCC3)ccn1 [Example 29]
efficacy in % (Alternaria solani; in vivo): 100% | efficacy in % (Botrytis cinerea): 100% | efficacy in % (Fusarium graminearum [1]; in vivo): 94% | efficacy in % [2]: 86% | efficacy in % (Leptosphaeria nodorum; in vivo): 90% | efficacy in % (Phytophthora infestans; in vivo): 90% | efficacy in % (Puccinia triticina; in vivo): 94% | efficacy in % (Pyrenophora teres; in vivo): 100% | efficacy in % (Septoria tritici): 71% | efficacy in % (Sphaerotheca fuliginea; in vivo): 83% | efficacy in % (Uromyces appendiculatus; in vivo): 94% | efficacy in % (Venturia inaequalis): 95% | efficacy in % (Pyricularia oryzae): 95% | efficacy in % (Rhizoctonia solani): 100% | efficacy in % (Cochliobolus miyabeanus): 95% | efficacy in % (Gibberella zeae): 80% | % inhibition of DON/AcDON at 50 μM (DON/AcDON production): 99% | % inhibition of the fungal growth of Fusarium graminearum at 50 μM (Fusarium graminearum [3]): 100%

CC(C)CC(=O)Nc1cc(-c2c(-c3ccccc3)nn3c2CCCC3)ccn1 [Example 31]
efficacy in % (Alternaria solani; in vivo): 94% | efficacy in % (Botrytis cinerea): 90% | efficacy in % (Fusarium graminearum [1]; in vivo): 100% | efficacy in % [2]: 100% | efficacy in % (Leptosphaeria nodorum; in vivo): 90% | efficacy in % (Phytophthora infestans; in vivo): 80% | efficacy in % (Puccinia triticina; in vivo): 94% | efficacy in % (Pyrenophora teres; in vivo): 100% | efficacy in % (Septoria tritici): 100% | efficacy in % (Sphaerotheca fuliginea; in vivo): 95% | efficacy in % (Uromyces appendiculatus; in vivo): 94% | efficacy in % (Venturia inaequalis): 100% | efficacy in % (Pyricularia oryzae): 98% | efficacy in % (Rhizoctonia solani): 100% | efficacy in % (Cochliobolus miyabeanus): 95% | efficacy in % (Gibberella zeae): 80% | % inhibition of DON/AcDON at 50 μM (DON/AcDON production): 99% | % inhibition of the fungal growth of Fusarium graminearum at 50 μM (Fusarium graminearum [3]): 97%

CCC(=O)Nc1cc(-c2c(-c3ccc(F)cc3)nn3c2CCCC3)ccn1 [Example 5, N-{4-[2-(4-Fluorophenyl)-4,5,6,7-tetrahydropyrazolo[1,5-a]pyridin-3-yl]pyridin-2-yl}propanamide]
efficacy in % (Alternaria solani; [5]): 100% | efficacy in % (Botrytis cinerea): 100% | efficacy in % (Fusarium graminearum [1]; 1000 ppm active compound, barley, protective, evaluation 5 days after inoculation): 100% | efficacy in % [2]: 100% | efficacy in % (Leptosphaeria nodorum; 500 ppm active compound, wheat, protective, evaluation 7-9 days after inoculation): 94% | efficacy in % (Phytophthora infestans; [5]): 95% | efficacy in % (Puccinia triticina; 1000 ppm active compound, wheat, protective, evaluation 8 days after inoculation): 100% | efficacy in % (Pyrenophora teres; 500 ppm active compound, barley, protective, evaluation 7-9 days after inoculation): 100% | efficacy in % (Sphaerotheca fuliginea; 500 ppm active compound, cucumber, protective, evaluation 7 days after inoculation): 95% | efficacy in % (Uromyces appendiculatus; 100 ppm active compound, bean, protective, evaluation 10 days after inoculation): 98% | efficacy in % (Venturia inaequalis): 98% | efficacy in % (Phakopsora pachyrhizi): 80% | inhibition at 50 µM (DON/AcDON production; Fusarium graminearum, 168 h): 99% | inhibition at 50 µM (Fusarium graminearum [3]; Fusarium graminearum, 72 h, read-out: % inhibition of the fungal growth of Fusarium graminearum at 50 μM): 100% | chromatographic logP ([4]; log P(HCOOH), HCOOH, preparation examples in the text): 1.97 | chromatographic logP ([4]; log P, values marked [a] in Table 1): 1.97 | chromatographic logP ([4]; log P, values marked [b] in Table 1): 2.58
